From PubChem BioAssay (NCI)
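Step 1: Grow cells in 96-well plates. Step 2: Expose to compound for 48 hours at 5 concentrations. Step 3: Interpolate endpoints linearly; if unreached, use highest concentration. GI50 marks 50% less growth. At the TGI there is no net growth.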 *1 amine or outer side, *2 acyl side, *3 side chain or, on linkers, in order; H or OH if unused. Where a SMILES comes first, the peptide text is derived from it. Bridges are numbered along the chain shown (N, C = ends). [ ]: non-standard residue; d: D form. The star is where a group is joined. Phe(3,5-F2) = N[C@@H](Cc1cc(F)cc(F)c1)C(=O)O; Pro(4R-Me) = C[C@H]1CN[C@H](C(=O)O)C1; aThr = C[C@H](O)[C@H](N)C(=O)O; Pip = O=C(O)[C@@H]1CCCCN1; X10 = Fc1cc(C2CC2)ccc1N*; CO = O=C([*:1])[*:2]

Key:
Experiment in all cases: NCI-60 cell line screen, 48 h
786-0 renal = system: 786-0 renal
A498 renal = system: A498 renal
A549 NSCLC = system: A549 NSCLC
ACHN renal = system: ACHN renal
BT-549 breast = system: BT-549 breast
CAKI-1 renal = system: CAKI-1 renal
CCRF-CEM leukemia = system: CCRF-CEM leukemia
COLO 205 colon = system: COLO 205 colon
DU-145 prostate = system: DU-145 prostate
EKVX NSCLC = system: EKVX NSCLC
HCC-2998 colon = system: HCC-2998 colon
HCT-116 colon = system: HCT-116 colon
HCT-15 colon = system: HCT-15 colon
HL-60(TB) leukemia = system: HL-60(TB) leukemia
HOP-62 NSCLC = system: HOP-62 NSCLC
HOP-92 NSCLC = system: HOP-92 NSCLC
HS 578T breast = system: HS 578T breast
HT29 colon = system: HT29 colon
IGROV1 ovarian = system: IGROV1 ovarian
K-562 leukemia = system: K-562 leukemia
KM12 colon = system: KM12 colon
LOX IMVI melanoma = system: LOX IMVI melanoma
M14 melanoma = system: M14 melanoma
MALME-3M melanoma = system: MALME-3M melanoma
MCF7 breast = system: MCF7 breast
MDA-MB-231 breast = system: MDA-MB-231 breast
MDA-MB-435 = system: MDA-MB-435
MOLT-4 leukemia = system: MOLT-4 leukemia
NCI-H226 lung = system: NCI-H226 lung
NCI-H23 lung = system: NCI-H23 lung
NCI-H460 lung = system: NCI-H460 lung
NCI-H522 lung = system: NCI-H522 lung
NCI/ADR-RES ovarian = system: NCI/ADR-RES ovarian
OVCAR-3 ovarian = system: OVCAR-3 ovarian
OVCAR-4 ovarian = system: OVCAR-4 ovarian
OVCAR-5 ovarian = system: OVCAR-5 ovarian
OVCAR-8 ovarian = system: OVCAR-8 ovarian
PC-3 prostate = system: PC-3 prostate
RPMI-8226 leukemia = system: RPMI-8226 leukemia
RXF 393 renal = system: RXF 393 renal
SF-268 CNS = system: SF-268 CNS
SF-295 CNS = system: SF-295 CNS
SF-539 CNS = system: SF-539 CNS
SK-MEL-2 melanoma = system: SK-MEL-2 melanoma
SK-MEL-28 melanoma = system: SK-MEL-28 melanoma
SK-MEL-5 melanoma = system: SK-MEL-5 melanoma
SK-OV-3 ovarian = system: SK-OV-3 ovarian
SN12C renal = system: SN12C renal
SNB-19 CNS = system: SNB-19 CNS
SNB-75 CNS = system: SNB-75 CNS
SR leukemia = system: SR leukemia
SW-620 colon = system: SW-620 colon
T-47D breast = system: T-47D breast
TK-10 renal = system: TK-10 renal
U251 CNS = system: U251 CNS
UACC-257 melanoma = system: UACC-257 melanoma
UACC-62 melanoma = system: UACC-62 melanoma
UO-31 renal = system: UO-31 renal

With C[C@@H]1C[C@H]2C(=O)O[C@@H](C)[C@H](NC(=O)[C@H](Cc3cc(F)cc(F)c3)NC(=O)Nc3ccc(C4CC4)cc3F)C(=O)N3CCC[C@H]3C(=O)N3CCCC[C@H]3C(=O)N[C@@H](C)C(=O)N2C1 ({X10-CO}-[Phe(3,5-F2)][aThr]P[Pip]A[Pro(4R-Me)]; ester 2-C) the GI50 (786-0 renal) was 0.0817 µM, the TGI (786-0 renal) was > 38.4 µM and the GI50 (A498 renal) was 0.0203 µM. The TGI (A498 renal) was 0.363 µM, the GI50 (A549 NSCLC) was 0.0507 µM and the TGI (A549 NSCLC) was > 100 µM. It also gave a GI50 (ACHN renal) of 0.0984 µM, a TGI (ACHN renal) of 8.12 µM and a GI50 (BT-549 breast) of 0.0588 µM. The TGI (BT-549 breast) was > 22.4 µM, the GI50 (CAKI-1 renal) was 0.04 µM and the TGI (CAKI-1 renal) was 10.3 µM. For the same molecule, the GI50 (CCRF-CEM leukemia) was 0.0522 µM, the TGI (CCRF-CEM leukemia) was > 100 µM and the GI50 (COLO 205 colon) was 0.0351 µM. The TGI (COLO 205 colon) was 1.19 µM, the GI50 (DU-145 prostate) was 0.053 µM and the TGI (DU-145 prostate) was > 56.9 µM. The GI50 (EKVX NSCLC) was 0.0613 µM, the TGI (EKVX NSCLC) was > 95.6 µM and the GI50 (HCC-2998 colon) was 0.0402 µM. It also gave a TGI (HCC-2998 colon) of 1.78 µM, a GI50 (HCT-116 colon) of 0.0414 µM and a TGI (HCT-116 colon) of 2.16 µM. For the same molecule, the GI50 (HCT-15 colon) was 0.0796 µM, the TGI (HCT-15 colon) was 5.28 µM and the GI50 (HL-60(TB) leukemia) was 0.0387 µM. For the same molecule, the TGI (HL-60(TB) leukemia) was 1.82 µM, the GI50 (HOP-62 NSCLC) was 0.0542 µM and the TGI (HOP-62 NSCLC) was > 48.2 µM. The GI50 (HOP-92 NSCLC) was 0.0452 µM, the TGI (HOP-92 NSCLC) was 4.76 µM and the GI50 (HS 578T breast) was 0.0409 µM. For the same molecule, the TGI (HS 578T breast) was 3.94 µM, the GI50 (HT29 colon) was 0.0496 µM and the TGI (HT29 colon) was 7.95 µM. It also gave a GI50 (IGROV1 ovarian) of 0.149 µM, a TGI (IGROV1 ovarian) of 18.5 µM and a GI50 (K-562 leukemia) of 0.0346 µM. For the same molecule, the TGI (K-562 leukemia) was > 52.3 µM, the GI50 (KM12 colon) was 0.0909 µM and the TGI (KM12 colon) was 10.3 µM. For the same molecule, the GI50 (LOX IMVI melanoma) was 0.0668 µM, the TGI (LOX IMVI melanoma) was 11.5 µM and the GI50 (M14 melanoma) was 0.0436 µM. The TGI (M14 melanoma) was 2.41 µM, the GI50 (MALME-3M melanoma) was 0.0635 µM and the TGI (MALME-3M melanoma) was 5.9 µM. The GI50 (MCF7 breast) was 0.0381 µM, the TGI (MCF7 breast) was 13.9 µM and the GI50 (MDA-MB-231 breast) was 0.0402 µM. For the same molecule, the TGI (MDA-MB-231 breast) was 1.3 µM, the GI50 (MDA-MB-435) was 0.0423 µM and the TGI (MDA-MB-435) was 2.71 µM. For the same molecule, the GI50 (MOLT-4 leukemia) was 0.205 µM, the TGI (MOLT-4 leukemia) was > 42.7 µM and the GI50 (NCI-H226 lung) was 0.0524 µM. It also gave a TGI (NCI-H226 lung) of 4.35 µM, a GI50 (NCI-H23 lung) of 0.0522 µM and a TGI (NCI-H23 lung) of 35.3 µM. For the same molecule, the GI50 (NCI-H460 lung) was 0.0391 µM, the TGI (NCI-H460 lung) was 4.55 µM and the GI50 (NCI-H522 lung) was 0.0441 µM. The GI50 (NCI/ADR-RES ovarian) was 0.354 µM, the TGI (NCI/ADR-RES ovarian) was 45.6 µM and the GI50 (OVCAR-3 ovarian) was 0.043 µM. It also gave a TGI (OVCAR-3 ovarian) of 3.27 µM, a GI50 (OVCAR-4 ovarian) of 0.033 µM and a TGI (OVCAR-4 ovarian) of 3.84 µM. It also gave a GI50 (OVCAR-5 ovarian) of 0.0575 µM, a TGI (OVCAR-5 ovarian) of 3.39 µM and a GI50 (OVCAR-8 ovarian) of 0.0383 µM. The TGI (OVCAR-8 ovarian) was > 100 µM, the GI50 (PC-3 prostate) was 0.0355 µM and the TGI (PC-3 prostate) was > 36 µM. It also gave a GI50 (RPMI-8226 leukemia) of 0.0287 µM, a TGI (RPMI-8226 leukemia) of 0.878 µM and a GI50 (RXF 393 renal) of 0.233 µM. The TGI (RXF 393 renal) was 3.99 µM, the GI50 (SF-268 CNS) was 0.049 µM and the TGI (SF-268 CNS) was > 46.9 µM. For the same molecule, the GI50 (SF-295 CNS) was 0.0438 µM, the TGI (SF-295 CNS) was 1.57 µM and the GI50 (SF-539 CNS) was 0.0752 µM. The TGI (SF-539 CNS) was 3.56 µM, the GI50 (SK-MEL-2 melanoma) was 0.0549 µM and the TGI (SK-MEL-2 melanoma) was 3.83 µM. For the same molecule, the GI50 (SK-MEL-28 melanoma) was 0.0781 µM, the TGI (SK-MEL-28 melanoma) was 4.99 µM and the GI50 (SK-MEL-5 melanoma) was 0.0461 µM. The TGI (SK-MEL-5 melanoma) was 1.24 µM, the GI50 (SK-OV-3 ovarian) was 0.0504 µM and the TGI (SK-OV-3 ovarian) was 16 µM. For the same molecule, the GI50 (SN12C renal) was 0.0401 µM, the TGI (SN12C renal) was 42.7 µM and the GI50 (SNB-19 CNS) was 0.0404 µM. The TGI (SNB-19 CNS) was > 46.9 µM, the GI50 (SNB-75 CNS) was 0.0485 µM and the TGI (SNB-75 CNS) was 49.9 µM. The GI50 (SR leukemia) was 0.0633 µM, the TGI (SR leukemia) was 5.67 µM and the GI50 (SW-620 colon) was 0.0534 µM. For the same molecule, the TGI (SW-620 colon) was > 100 µM, the GI50 (T-47D breast) was 0.0448 µM and the TGI (T-47D breast) was > 22.1 µM. The GI50 (TK-10 renal) was 0.343 µM, the TGI (TK-10 renal) was > 35.1 µM and the GI50 (U251 CNS) was 0.0479 µM. The TGI (U251 CNS) was > 46 µM, the GI50 (UACC-257 melanoma) was 0.0413 µM and the TGI (UACC-257 melanoma) was 10.7 µM. It also gave a GI50 (UACC-62 melanoma) of 0.0512 µM, a TGI (UACC-62 melanoma) of 4.37 µM and a GI50 (UO-31 renal) of 0.161 µM. For the same molecule, the TGI (UO-31 renal) was 7.61 µM.
